Consider 25 molecules from patent US20260092061A1, “COMPOUNDS FOR TARGETED PROTEIN DEGRADATION” (Amphista Therapeutics Limited, priority 2022, published 2026).

The target of the assay is T1, BRD9 (Homo sapiens, UniProt Q9H8M2).
T1 sequence (Q9H8M2 1-597): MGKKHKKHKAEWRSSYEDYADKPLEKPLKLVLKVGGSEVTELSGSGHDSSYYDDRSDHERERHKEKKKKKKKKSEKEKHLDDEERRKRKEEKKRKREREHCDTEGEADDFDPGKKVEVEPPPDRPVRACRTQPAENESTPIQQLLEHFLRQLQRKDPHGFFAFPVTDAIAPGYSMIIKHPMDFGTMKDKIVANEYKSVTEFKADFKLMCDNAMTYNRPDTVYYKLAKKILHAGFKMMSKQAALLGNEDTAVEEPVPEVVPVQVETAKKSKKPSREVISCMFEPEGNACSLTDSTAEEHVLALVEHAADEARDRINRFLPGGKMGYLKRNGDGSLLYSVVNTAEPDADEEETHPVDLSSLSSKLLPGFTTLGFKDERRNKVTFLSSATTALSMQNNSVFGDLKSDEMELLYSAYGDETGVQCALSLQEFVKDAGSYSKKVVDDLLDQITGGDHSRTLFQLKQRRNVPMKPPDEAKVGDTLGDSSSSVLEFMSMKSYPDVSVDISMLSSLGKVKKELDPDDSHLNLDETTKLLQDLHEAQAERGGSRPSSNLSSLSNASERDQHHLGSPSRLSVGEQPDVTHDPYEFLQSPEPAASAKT
In words: Degradation of BRD9 (IF), immunofluorescence in MV4-11 cells, 24 hours (Assay Protocol 2). Type of assay: cell-based. More on the design: A suspension of MV4-11 cells (ATCC CRL-9591) was prepared; host or cells: MV4-11. The note with it: BRD9 degradation. An outline of the steps:
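MV4-11 cells treated with compound 24 h at 37° C., then fixed, permeabilised and immunostained for BRD9 (anti-BRD9 E4Q3F, Alexa 647 secondary, Hoechst counterstain). High-content imaging quantified nuclear BRD9 signal; % BRD9 remaining normalised to DMSO and 100 nM CFT-8634 controls.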

[1] abbreviates: Assay protocol 2, read-out: DC50.
Where [2] appears, read: MV4-11, Assay protocol 2, read-out: Dmax.
The mark [3] stands for this setting: MV4-11, Table 4, determined according to Assay Protocol 2, read-out: Dmax^2.
Where [4] appears, read: Table 4, determined according to Assay Protocol 2, read-out: DC50^2.

Read-outs that look alike come from different tables or passages of the source.

One may read the DC50 as the midpoint of the concentration-degradation curve. Broadly, the Dmax is the largest share of the target that was removed. Regarding `COc1cc(-c2cn(C)c(=O)c(C)c2C)cc(OC)c1CN1CCC(Oc2cccc3c2CCN(C(=O)/C(C#N)=C/C(C)(C)C)C3C)C1` (stereo in doubt) [Compound B134, (E)-2-(5-(((S)-1-(2,6-dimethoxy-4-(1,4,5-trimethyl-6-oxo-1,6-dihydropyridin-3-yl)benzyl)pyrrolidin-3-yl)oxy)-1-methyl-1,2,3,4-tetrahydroisoquinoline-2-carbonyl)-4,4-dimethylpent-2-enenitrile], the DC50 under setting [1] was in the range of 25 to 1000 nM. For the same molecule, the Dmax under setting [2] is 40 to 70%. For the molecule `COc1cc(-c2cn(C)c(=O)c(C)c2C)cc(OC)c1CN(C)C1CCN(C(=O)/C(C#N)=C/c2cccc(C(F)(F)F)n2)CC1` [BRD9aa, (E/Z)-2-(4-((2,6-dimethoxy-4-(1,4,5-trimethyl-6-oxo-1,6-dihydropyridin-3-yl)benzyl)(methyl)amino)piperidine-1-carbonyl)-3-(6-(trifluoromethyl)pyridin-2-yl)acrylonitrile], the Dmax under setting [3] is above 70%. On to `COc1cc(-c2cn(C)c(=O)c(C)c2C)cc(OC)c1CN1CCC2(CC1)CCN(C(=O)/C(C#N)=C/c1cccc(Br)n1)CC2` [BRD9r, (E/Z)-3-(6-bromopyridin-2-yl)-2-(9-(2,6-dimethoxy-4-(1,4,5-trimethyl-6-oxo-1,6-dihydropyridin-3-yl)benzyl)-3,9-diazaspiro[5.5]undecane-3-carbonyl)acrylonitrile], for which the Dmax under setting [3] is above 70%. For the same molecule, the DC50 under setting [4] is above 200 nM. The like results for `COc1cc(-c2cn(C)c(=O)c(C)c2C)cc(OC)c1C(=O)N1CCN(C(=O)/C(C#N)=C/C(C)(C)C)CC1` [BRD9s, (E/Z)-2-(4-(2,6-dimethoxy-4-(1,4,5-trimethyl-6-oxo-1,6-dihydropyridin-3-yl)benzoyl)piperazine-1-carbonyl)-4,4-dimethylpent-2-enenitrile] were, in that order, 50 to 70% and below 25 nM.

As to `COc1cc(-c2cn(C)c(=O)c(C)c2C)cc(OC)c1C(=O)N1CCCN(C(=O)/C(C#N)=C/C(C)(C)C)CC1` [BRD9v, (E/Z)-2-(4-(2,6-dimethoxy-4-(1,4,5-trimethyl-6-oxo-1,6-dihydropyridin-3-yl)benzoyl)-1,4-diazepane-1-carbonyl)-4,4-dimethylpent-2-enenitrile], the greatest degradation seen (Dmax) under setting [3] lay within 50 to 70%. The DC50 under setting [4] was below 25 nM. In the same order, the values of `COc1cc(-c2cn(C)c(=O)c(C)c2C)cc(OC)c1CN(C)C1CCN(C(=O)/C(C#N)=C/c2cccc(Br)n2)CC1` [BRD9z, (E/Z)-3-(6-bromopyridin-2-yl)-2-(4-((2,6-dimethoxy-4-(1,4,5-trimethyl-6-oxo-1,6-dihydropyridin-3-yl)benzyl)(methyl)amino)piperidine-1-carbonyl)acrylonitrile] are above 70% and above 200 nM. With `COc1cc(-c2cn(C)c(=O)c(C)c2C)cc(OC)c1CN1CCC2(CC1)CCN(c1cccc3c1CCN(C(=O)/C(C#N)=C/C(C)(C)C)C3C)C2` (stereo not drawn) [Compound B63, (E2Z)-2-(5-(8-(2,6-dimethoxy-4-(1,4,5-trimethyl-6-oxo-1,6-dihydropyridin-3-yl)benzyl)-2,8-diazaspiro[4.5]decan-2-yl)-1-methyl-1,2,3,4-tetrahydroisoquinoline-2-carbonyl)-4,4-dimethylpent-2-enenitrile], under setting [1], the 50% degradation concentration (DC50) fell in the range of 1.25 to 10 nM. Further, the greatest degradation seen (Dmax) under setting [2] was in the range of 40 to 70%. On to `COc1cc(-c2cn(C)c(=O)c(C)c2C)cc(OC)c1CN1CCN(C(=O)[C@H]2CN(C(=O)/C(C#N)=C/C(C)(C)C)C[C@@H]2C)CC1` [Compound B214], for which the Dmax under setting [3] was in the range of 50 to 70%. Moreover, the DC50 under setting [4] is above 200 nM.

`COc1cc(-c2cn(C)c(=O)c3[nH]ncc23)cc(OC)c1CN1CCN(C(=O)/C(C#N)=C/C(C)(C)C)CC1` [Compound B215, (E/Z)-2-(4-(2,6-dimethoxy-4-(6-methyl-7-oxo-6,7-dihydro-1H-pyrazolo[3,4-c]pyridin-4-yl)benzyl)piperazine-1-carbonyl)-4,4-dimethylpent-2-enenitrile]: the DC50 under setting [1] fell in the range of 25 to 1000 nM. Also, the Dmax under setting [2] lay within 40 to 70%.

On to `COc1cc(-c2cn(C)c(=O)c(C)c2C)cc(OC)c1CN1CCN(Cc2ccc3c(c2)CN(C(=O)/C(C#N)=C/C(C)(C)C)CC3)C2(CC2)C1` [Compound C1, (E/Z)-2-(7-((7-(2,6-dimethoxy-4-(1,4,5-trimethyl-6-oxo-1,6-dihydropyridin-3-yl)benzyl)-4,7-diazaspiro[2.5]octan-4-yl)methyl)-1,2,3,4-tetrahydroisoquinoline-2-carbonyl)-4,4-dimethylpent-2-enenitrile], for which the DC50 under setting [1] was below 1.25 nM. For the same molecule, under setting [2], the Dmax is above 75%.

For the molecule `COc1cc(-c2cn(C)c(=O)c(C)c2C)cc(OC)c1CN1CCN(Cc2cccc3c2CCN(C(=O)/C(C#N)=C/C(C)(C)C)C3)C2(CC2)C1` [Compound C2, (E/Z)-2-(5-((7-(2,6-dimethoxy-4-(1,4,5-trimethyl-6-oxo-1,6-dihydropyridin-3-yl)benzyl)-4,7-diazaspiro[2.5]octan-4-yl)methyl)-1,2,3,4-tetrahydroisoquinoline-2-carbonyl)-4,4-dimethylpent-2-enenitrile], the DC50 under setting [1] was in the range of 1.25 to 10 nM. Also, under setting [2], the Dmax was above 75%. The like results for `COc1cc(-c2cn(C)c(=O)c(C)c2C)cc(OC)c1CN1CCC2(CCN(c3cccc4c3CCN(C(=O)/C(C#N)=C/C(C)(C)C)C4C)C2)C1` (stereo not drawn) [Compound C42, (E2Z)-2-(5-(7-(2,6-dimethoxy-4-(1,4,5-trimethyl-6-oxo-1,6-dihydropyridin-3-yl)benzyl)-2,7-diazaspiro[4.4]nonan-2-yl)-1-methyl-1,2,3,4-tetrahydroisoquinolin-2-carbonyl)-4,4-dimethylpent-2-enenitrile] were, in that order, 1.25 to 10 nM and 40 to 70%. In the same order, the values of `COc1cc(-c2cn(C)c(=O)c(C)c2C)cc(OC)c1CN1CCC(CN(C)c2ccc3c(c2)C(C)N(C(=O)/C(C#N)=C/C(C)(C)C)CC3)CC1` (stereo not drawn) [Compound C46] are 1.25 to 10 nM and 40 to 70%. Regarding `COc1cc(-c2cn(C)c(=O)c(C)c2C)cc(OC)c1CN1CCC2(CC1)CCN(c1cccc3c1CCN(C(=O)/C(C#N)=C/C(C)(C)C)[C@@H]3C)C2` [Compound C47], under setting [1], the DC50 is 1.25 to 10 nM. Also, under setting [2], the Dmax was above 75%.

Turning to `COc1cc(-c2cn(C)c(=O)c(C)c2C)cc(OC)c1CN1CC(Cc2cccc3c2CCN(C(=O)/C(C#N)=C/C(C)(C)C)C3C)C1` (stereo not drawn) [Compound C49], under setting [2], the Dmax fell in the range of 40 to 70%. Turning to `COc1cc(-c2cn(C)c(=O)c(C)c2C)ccc1OC1CCC(Cc2cccc3c2CCN(C(=O)/C(C#N)=C/C(C)(C)N2CCN(C)CC2)C3C)CC1` (stereo not drawn) [Compound C50], the DC50 under setting [1] was in the range of 25 to 1000 nM. Further, the Dmax under setting [2] was 70 to 75%.

`COc1cc(-c2cn(C)c(=O)c(C)c2C)ccc1OC1CCC(Cc2cccc3c2CCN(C(=O)/C(C#N)=C/C(C)(C)N2CCN(C4COC4)CC2)C3C)CC1` (stereo not drawn) [Compound C51]: the DC50 under setting [1] is 25 to 1000 nM. Besides, under setting [2], the Dmax lay in the range of 40 to 70%. In the same order, the values of `COc1cc(-c2cn(C)c(=O)c(C)c2C)cc(OC)c1CN1CCC(Cc2ccc3c(c2)C(C)N(C(=O)/C(C#N)=C/C(C)(C)C)CC3)CC1(C)C` (stereo not drawn) [Compound C53] are 25 to 1000 nM and 40 to 70%. In the same order, the values of `COc1cc(-c2cn(C)c(=O)c(C)c2C)cc(OC)c1CN1CCC2(CCN(c3ccc4c(c3)[C@H](C)N(C(=O)/C(C#N)=C/C(C)(C)C)CC4)CC2)C1` [Compound C54] are 25 to 1000 nM and 40 to 70%. In the same order, the values of `COc1cc(-c2cn(C)c(=O)c(C)c2C)cc(OC)c1CN1CC(=O)N(Cc2cccc3c2CCN(C(=O)/C(C#N)=C/C(C)(C)C)C3C)C(C)(C)C1` (stereo not drawn) [Compound C55] are 25 to 1000 nM and above 75%. Take `COc1cc(-c2cn(C)c(=O)c(C)c2C)ccc1O[C@H]1CC[C@@H](Nc2cccc3c2CCN(C(=O)/C(C#N)=C/C(C)(C)C)C3C)CC1` (stereo partly drawn) [Compound C56]: under setting [1], the DC50 is 25 to 1000 nM. Moreover, the greatest degradation seen (Dmax) under setting [2] is above 75%. `COc1cc(-c2cn(C)c(=O)c(C)c2C)ccc1OC1CCN(Cc2cccc3c2CCN(C(=O)/C(C#N)=C\C(C)(C)C)C3C)C(C)(C)C1` (stereo not drawn) [Compound C58]: under setting [1], the DC50 fell in the range of 10 to 25 nM. Besides, the Dmax under setting [2] was above 75%. The like results for `COc1cc(-c2cn(C)c(=O)c(C)c2C)cc(OC)c1CN1CCC(COc2ccc3c(c2)[C@H](C)N(C(=O)/C(C#N)=C/C(C)(C)C)CC3)CC1` [Compound C61] were, in that order, below 1.25 nM and above 75%. In the same order, the values of `COc1cc(-c2cn(C)c(=O)c(C)c2C)cc(OC)c1CN1CCC(Cc2cccc3c2CCN(C(=O)/C(C#N)=C/C(C)(C)C)C3C)C(C)(C)C1` (stereo not drawn) [Compound C62] are 10 to 25 nM and above 75%. In the same order, the values of `COc1cc(-c2cn(C)c(=O)c(C)c2C)ccc1OC1CCC(Cc2cccc3c2CCN(C(=O)/C(C#N)=C/C(C)(C)N2CCN(C)CC2)C3C(C)C)CC1` (stereo not drawn) [Compound C85] are 25 to 1000 nM and above 75%.
